Results as given in patent publication US6410792B1, “Amide derivatives and methods for using the same as selective neuropeptide Y receptor antagonists” (Bayer Corporation, priority 1997, dated 2002).
Where a name gives a salt, the structure may show the parent alone. Read-outs that look alike come from different tables or passages of the source.

Legend:
[1] = target: T1, Human NPY1 receptor (Homo sapiens, UniProt P25929); assay: Human NPY1 receptor binding assay ([125I]PYY, SK-N-MC cells); details: [125I]PYY, SK-N-MC cells; read-out: hNPYI IC50
T1 construct: host or cells: SK-N-MC cells
T1 sequence (P25929 1-384): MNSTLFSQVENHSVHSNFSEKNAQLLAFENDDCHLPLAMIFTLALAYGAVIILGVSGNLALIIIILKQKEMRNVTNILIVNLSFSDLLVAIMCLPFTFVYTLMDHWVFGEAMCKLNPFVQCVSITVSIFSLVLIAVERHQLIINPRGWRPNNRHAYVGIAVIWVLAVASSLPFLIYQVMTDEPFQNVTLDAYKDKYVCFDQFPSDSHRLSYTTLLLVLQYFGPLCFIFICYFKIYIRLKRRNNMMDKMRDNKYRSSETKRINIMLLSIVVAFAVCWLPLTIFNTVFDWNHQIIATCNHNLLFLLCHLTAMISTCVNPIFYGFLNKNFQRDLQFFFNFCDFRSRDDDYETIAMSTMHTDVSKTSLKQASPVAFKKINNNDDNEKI
How it was run: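 Confluent SK-N-MC cells preincubated 30 min at room temperature in serum-free DMEM/25 mM HEPES pH 7.3 with BSA, bacitracin and PMSF, then incubated 3 h at room temperature with compound and ~50 pM [125I]PYY. Nonspecific binding defined with 1 μM NPY; bound radioactivity counted after Triton X-100 lysis.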

[2] = target: T2, Human NPY5 receptor (Homo sapiens, UniProt Q15761); assay: Human NPY5 receptor binding assay ([125I]PYY, membrane protein)
T2 sequence (Q15761 1-445): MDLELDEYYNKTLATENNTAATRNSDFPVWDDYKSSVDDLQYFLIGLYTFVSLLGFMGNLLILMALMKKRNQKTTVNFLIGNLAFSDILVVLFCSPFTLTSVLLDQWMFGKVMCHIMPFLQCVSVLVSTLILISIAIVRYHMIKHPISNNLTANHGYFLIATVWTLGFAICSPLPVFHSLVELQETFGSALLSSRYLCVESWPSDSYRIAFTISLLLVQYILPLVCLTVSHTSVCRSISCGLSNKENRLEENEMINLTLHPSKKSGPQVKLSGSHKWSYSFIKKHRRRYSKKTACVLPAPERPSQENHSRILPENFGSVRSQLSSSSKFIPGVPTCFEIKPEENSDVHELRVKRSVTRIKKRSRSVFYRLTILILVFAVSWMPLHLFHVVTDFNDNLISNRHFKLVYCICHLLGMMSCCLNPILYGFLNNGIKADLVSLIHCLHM
How it was run: (§1)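 First, membrane protein, drug dilution and 75-100 pM [125I]PYY were combined in pH 7.4 Tris saline buffer containing divalent cations and 0.1% BSA. Next, samples were mixed 2 hours at room temperature. Finally, samples were filtered, washed ice-cold and counted; 1 μM PYY gave nonspecific binding.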

[3] = target: T3, Rat NPY5 receptor (Rattus norvegicus, UniProt Q63634); assay: Rat NPY5 receptor binding assay ([125I]PYY, membrane protein)
T3 sequence (Q63634 1-445): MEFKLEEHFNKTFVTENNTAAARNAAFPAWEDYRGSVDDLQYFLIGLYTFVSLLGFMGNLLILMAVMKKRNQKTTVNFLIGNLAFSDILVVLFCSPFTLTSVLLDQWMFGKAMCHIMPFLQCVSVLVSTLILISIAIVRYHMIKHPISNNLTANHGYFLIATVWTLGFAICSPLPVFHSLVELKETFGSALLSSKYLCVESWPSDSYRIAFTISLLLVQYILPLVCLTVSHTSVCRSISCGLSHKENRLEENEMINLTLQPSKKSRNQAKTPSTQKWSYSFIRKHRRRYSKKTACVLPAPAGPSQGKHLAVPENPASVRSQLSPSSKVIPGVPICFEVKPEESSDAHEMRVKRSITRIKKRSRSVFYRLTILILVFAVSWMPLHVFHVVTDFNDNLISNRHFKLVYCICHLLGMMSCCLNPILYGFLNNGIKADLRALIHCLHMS
How it was run: as §1

[4] = target: T4, Y2 receptor (Homo sapiens, UniProt P49146); assay: Y2 receptor binding assay ([125I]PYY, membrane protein); details: [125I]PYY, membrane protein; read-out: hNPY2 IC50
T4 sequence (P49146 1-381): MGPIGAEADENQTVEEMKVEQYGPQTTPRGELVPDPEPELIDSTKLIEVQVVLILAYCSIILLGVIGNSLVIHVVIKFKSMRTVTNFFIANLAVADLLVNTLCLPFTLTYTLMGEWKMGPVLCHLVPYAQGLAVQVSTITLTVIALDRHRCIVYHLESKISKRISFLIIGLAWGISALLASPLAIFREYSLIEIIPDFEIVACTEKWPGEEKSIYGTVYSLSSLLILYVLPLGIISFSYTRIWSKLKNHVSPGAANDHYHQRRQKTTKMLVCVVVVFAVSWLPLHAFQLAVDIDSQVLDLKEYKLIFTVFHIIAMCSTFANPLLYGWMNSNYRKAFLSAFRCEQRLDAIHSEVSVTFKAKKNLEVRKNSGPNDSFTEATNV
How it was run: (§2)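 Filtration binding with membrane protein and drug dilution, 2 h at room temperature with mixing, radioactivity counted by gamma or scintillation. Y2: 25 pM [125I]PYY in Krebs-Ringer bicarbonate pH 7.4 with 0.01% BSA, nonspecific by 1 μM NPY. Y4/PP1: 50 pM [125I]hPP in HEPES-buffered saline pH 7.4 with protease inhibitors and 0.3% BSA, nonspecific by 1 μM hPP.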

[5] = target: human Y4/PP1 receptor (Homo sapiens, UniProt P50391); assay: Human Y4/PP1 receptor binding assay ([125I]human PP, membrane protein); details: [125I]human PP, membrane protein; read-out: hNPY4 IC50
How it was run: as §2

[6] = target: T3, Rat NPY5 receptor; assay: Rat NPY5 cyclase assay (in vitro functional assay, forskolin-stimulated adenylate cyclase, cAMP); format: cell-based; details: 10 μM, percentage of forskolin-stimulated adenylate cyclase; for activity at 10 µM: 20 min, read-out: rNPY5 % FSAC (10 μM)
Description: D. Rat NYP5 Cyclase Assay (In Vitro Functional Assay)
Cells stably expressing the rat NPY5 receptor are resuspended in serum-free DMEM containing 10 mM HEPES (pH 7.4) and 1 mM isobutylmethylxanthine (IBMX). […] forskolin and drug dilution are then added to the cells. After a 20 minute incubation of the samples at 37° C, the assay is stopped by placing the samples in boiling water for 3 minutes. The cAMP produced in each sample is quantitated with a radioimmunoassay kit (NEN DuPont). Data are expressed as a percentage of forskolin-stimulated adenylate cyclase.

[7] = [125I]PYY, read-out: hNPY5 IC50
[8] = [125I]PYY, read-out: rNPY5 IC50

Chain of human Y4/PP1 receptor (P50391 whole entry): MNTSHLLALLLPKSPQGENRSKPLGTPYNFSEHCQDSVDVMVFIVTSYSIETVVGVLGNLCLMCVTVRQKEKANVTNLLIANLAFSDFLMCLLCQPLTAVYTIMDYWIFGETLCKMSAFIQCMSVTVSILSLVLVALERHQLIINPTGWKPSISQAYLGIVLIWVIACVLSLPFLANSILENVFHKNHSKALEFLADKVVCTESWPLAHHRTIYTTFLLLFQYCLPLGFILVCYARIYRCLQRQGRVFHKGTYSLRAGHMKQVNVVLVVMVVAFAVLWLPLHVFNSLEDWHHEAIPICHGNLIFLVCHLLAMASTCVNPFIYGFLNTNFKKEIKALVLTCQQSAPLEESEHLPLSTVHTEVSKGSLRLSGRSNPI

## O=C(CN1CCCC1C(O)(c1ccccc1)c1ccccc1)Nc1ccc(C2CCCCC2)cc1 (stereo not drawn) [Compound 296, N-(4-Cyclohexyl-phenyl)-2-[2-(hydroxy-diphenyl-methyl)-pyrrolidin-1-yl]-acetamide; compound with oxalic acid]
[1]
  IC50: > 5 µM
[2]; [7]
  IC50: 0.048 µM
[3]; [8]
  IC50: 0.043 µM
[4]
  IC50: > 5 µM
[5]
  IC50: > 5 µM
[6]
  activity at 10 µM: 98%

## NC(=O)C1CCCN1CC(=O)Nc1ccc(C2CCCCC2)cc1 (stereo not drawn) [Compound 297, 1-[(4-Cyclohexyl-phenylcarbamoyl)-methyl]-pyrrolidin-2-carboxylic acid amide; hydrochloride]
[1]
  IC50: > 5 µM
[2]; [7]
  IC50: 0.032 µM
[3]; [8]
  IC50: 0.045 µM
[4]
  IC50: > 5 µM
[5]
  IC50: > 5 µM
[6]
  activity at 10 µM: 103%

## Cc1ccc(C2(O)CCN(CC(=O)Nc3ccc(C4CCCCC4)cc3)CC2)cc1 [Compound 298, N-(4-Cyclohexyl-phenyl)-2-(4-hydroxy-4-p-tolyl-piperidin-1-yl)-acetamide; hydrochloride]
[1]
  IC50: > 5 µM
[2]; hNPY5 IC50, [125I]PYY
  IC50: 0.03 µM
[3]; rNPY5 IC50, [125I]PYY
  IC50: 0.044 µM
[4]
  IC50: > 5 µM
[5]
  IC50: > 5 µM
[6]
  activity at 10 µM: 103%

## O=C(CN1CCN(c2ccccc2Cl)CC1)Nc1ccc(C2CCCCC2)cc1.O=C(O)C(=O)O [Compound 299]
[1]
  IC50: > 5 µM
[2]; [7]
  IC50: 0.14 µM
[3]; [8]
  IC50: 0.16 µM
[4]
  IC50: > 5 µM
[5]
  IC50: > 5 µM
[6]
  rNPY5 % FSAC (10 μM): 103%

## O=C(CN1CCC(O)(Cc2ccccc2)CC1)Nc1ccc(C2CCCCC2)cc1 [Compound 314, 2-(4-Benzyl-4-hydroxy-piperidin-1-yl)-N-(4-cyclohexyl-phenyl)-acetamide; hydrochloride]
[1]
  IC50: > 5 µM
[2]; [7]
  IC50: 0.13 µM
[3]; [8]
  IC50: 0.1 µM
[4]
  IC50: > 5 µM
[5]
  IC50: > 5 µM
[6]
  activity at 10 µM: 110%

## CCc1cc(Br)c(NC(=O)CN2CCC(n3c(=O)[nH]c4ccccc43)CC2)c(Br)c1 [Compound 330, N-(2,6-Dibromo-4-ethyl-phenyl)-2-[4-(2-oxo-2,3-dihydrobenzoimidazol-1-yl)-piperidin-1-yl]-acetamide, reference compound]
[1]
  IC50: > 5 µM
[2]; [7]
  IC50: 0.44 µM
[3]; [8]
  IC50: 0.26 µM
[4]
  IC50: > 5 µM
[5]
  IC50: > 5 µM
[6]
  activity at 10 µM: 99%

## O=C(CN1CCC(n2c(=O)[nH]c3ccccc32)CC1)Nc1ccc(Br)c(Cl)c1 [Compound 342, N-(4-Bromo-3-chloro-phenyl)-2-[4-(2-oxo-2,3-dihydro-benzoimidazol-1-yl)-piperidin-1-yl]-acetamide, reference compound]
[1]
  IC50: > 5 µM
[2]; [7]
  IC50: 0.276 µM
[3]; [8]
  IC50: 0.37 µM
[4]
  IC50: > 5 µM
[5]
  IC50: > 5 µM
[6]
  activity at 10 µM: 105%

## O=C(CN1CCC(n2c(=O)[nH]c3ccccc32)CC1)Nc1ccc(O)cc1 [Compound 345, N-(4-Hydroxy-phenyl)-2-[4-(2-oxo-2,3-dihydro-benzoimidazol-1-yl)-piperidin-1-yl]-acetamide, reference compound]
[1]
  IC50: > 5 µM
[2]; [7]
  IC50: 2.9 µM
[3]; [8]
  IC50: 3.3 µM
[4]
  IC50: > 5 µM
[5]
  IC50: > 5 µM
[6]
  activity at 10 µM: 93%

## CCOc1ccc(NC(=O)CN2CCC(n3c(=O)[nH]c4ccccc43)CC2)c2ccccc12 [Compound 346, N-(4-Ethoxy-naphthalen-1-yl)-2-[4-(2-oxo-2,3-dihydro-benzoimidazol-1-yl)-piperidin-1-yl]-acetamide, reference compound]
[1]
  IC50: > 5 µM
[2]; [7]
  IC50: 0.081 µM
[3]; [8]
  IC50: 0.063 µM
[4]
  IC50: > 5 µM
[5]
  IC50: > 5 µM
[6]
  activity at 10 µM: 105%

## O=C(CN1CCC(n2c(=O)[nH]c3ccccc32)CC1)Nc1ccc(N=Nc2ccccc2)cc1 [Compound 349, 2-[4-(2-Oxo-2,3-dihydro-benzoimidazol-1-yl)-piperidin-1-yl]-N-(4-phenylazo-phenyl)-acetamide, reference compound]
[1]
  IC50: > 5 µM
[2]; [7]
  IC50: 0.138 µM
[3]; [8]
  IC50: 0.165 µM
[4]
  IC50: > 5 µM
[5]
  IC50: > 5 µM
[6]
  activity at 10 µM: 100%

## O=C(CN1CCC(n2c(=O)[nH]c3ccccc32)CC1)Nc1ccc(Oc2ccccc2)cc1 [Compound 352, 2-[4-(2-Oxo-2,3-dihydro-benzoimidazol-1-yl)-piperidin-1-yl]-N-(4-phenoxy-phenyl)-acetamide, reference compound]
[1]
  IC50: > 5 µM
[2]; [7]
  IC50: 0.053 µM
[3]; [8]
  IC50: 0.0628 µM
[4]
  IC50: > 5 µM
[5]
  IC50: > 5 µM
[6]
  activity at 10 µM: 90%

## CC(=O)c1ccc(NC(=O)CN2CCC(n3c(=O)[nH]c4ccccc43)CC2)cc1 [Compound 354, N-(4-Acetyl-phenyl)-2-[4-(2-oxo-2,3-dihydro-benzoimidazol-1-yl)-piperidin-1-yl]-acetamide, reference compound]
[1]
  IC50: > 5 µM
[2]; [7]
  IC50: 0.143 µM
[3]; [8]
  IC50: 0.136 µM
[4]
  IC50: > 5 µM
[5]
  IC50: > 5 µM
[6]
  activity at 10 µM: 98%

## O=C(CN1CCC(n2c(=O)[nH]c3ccccc32)CC1)Nc1ccc(C(F)(F)F)cc1 [Compound 356, 2-[4-(2-Oxo-2,3-dihydro-benzoimidazol-1-yl)-piperidin-1-yl]-N-(4-trifluoromethyl-phenyl)-acetamide, reference compound]
[1]
  IC50: > 5 µM
[2]; [7]
  IC50: 0.259 µM
[3]; [8]
  IC50: 0.271 µM
[4]
  IC50: > 5 µM
[5]
  IC50: > 5 µM
[6]
  activity at 10 µM: 105%

## O=C(CN1CCC(n2c(=O)[nH]c3ccccc32)CC1)Nc1ccc([N+](=O)[O-])c(Cl)c1 [Compound 357, N-(3-Chloro-4-nitro-phenyl)-2-[4-(2-oxo-2,3-dihydro-benzoimidazol-1-yl)-piperidin-1-yl]-acetamide, reference compound]
[1]
  IC50: > 5 µM
[2]; [7]
  IC50: 0.239 µM
[3]; [8]
  IC50: 0.229 µM
[4]
  IC50: > 5 µM
[5]
  IC50: > 5 µM
[6]
  activity at 10 µM: 112%
